System: NO production in BV-2 cells [NO 생성; BV-2 세포]
Experiment: Nitric oxide (NO) quantification (nitrite, Griess reaction) in LPS-activated BV-2 cells
Assay type: cell-based
Conditions: LPS 0.2 ㎍/mL, 24 h co-treatment, nitrite by Griess at 540 nm
[1] = Mus musculus, BV-2, 24 h, 20 μM

Compound	activity at 20 µM [1] [%]	also measured
COc1ccc(CNc2nc(SC)nc3c2cnn3CCO)cc1 [화합물 27e, 1-(1-하이드록시에틸)-4-(4-메톡시벤질)아미노-6-(메틸티오)피라졸로[3,4-d]피리미딘]	56 ± 6	–
COc1cccc(CCn2ncc3c(NCc4ccccc4C)nc(S(C)(=O)=O)nc32)c1 [화합물 23y, N-(2-메틸벤질)-1-(3-메톡시펜에틸)-6-(메틸설포닐)-1H-피라졸로[3,4-d]피리미딘-4-아민]	–	NO (% of LPS) (20 μM, 1440 min): 54±3.5 % of LPS
CSc1nc(NCCc2ccccc2)c2cnn(C(C)(C)C)c2n1 [화합물 17h, 1-t-뷰틸-4-(2-페닐에틸)아미노-6-(메틸티오)피라졸로[3,4-d]피리미딘]	61 ± 1	–
CSc1nc(NC(C)C2CCCCC2)c2cnn(-c3ccc(C)cc3)c2n1 (stereo not drawn) [화합물 21h, N-(1-사이클로헥실에틸)-6-(메틸티오)-1-p-톨릴-1H-피라졸로[3,4-d]피리미딘-4-아민]	73 ± 2.6	–
COc1cccc(CCn2ncc3c(NCc4ccccc4Cl)nc(S(C)(=O)=O)nc32)c1 [화합물 23w, N-(2-클로로벤질)-1-(3-메톡시펜에틸)-6-(메틸설포닐)-1H-피라졸로[3,4-d]피리미딘-4-아민]	54 ± 2.3	–
CSc1nc(NCc2ccccc2)c2cnn(C(C)(C)C)c2n1 [화합물 17a, 1-t-뷰틸-4-벤질아미노-6-(메틸티오)피라졸로[3,4-d]피리미딘]	73 ± 3	–
CSc1nc(SCCCCl)c2cnn(Cc3ccccc3)c2n1 [화합물 16o, 4-(3-클로로프로필티오)-1-벤질-6-(메틸티오)-1H-피라졸로[3,4-d]피리미딘]	43 ± 4.6	–
CSc1nc(NCCc2ccccc2)c2cnn(-c3ccccc3)c2n1 [화합물 15b, 1-페닐-4-(2-페닐에틸)아미노-6-(메틸티오)피라졸로[3,4-d]피리미딘]	72 ± 8	–
CSc1nc(NCCO)c2cnn(-c3ccccc3)c2n1 [화합물 15d, 1-페닐-4-(1-하이드록식에틸)아미노-6-(메틸티오)피라졸로[3,4-d]피리미딘]	68 ± 7	–
CS(=O)(=O)c1nc(NCc2ccccc2Cl)c2cnn(-c3ccc(F)cc3)c2n1 [화합물 23j, N-(2-클로로벤질)-1-(4-플루오로페닐)-6-(메틸설포닐)-1H-피라졸로[3,4-d]피리미딘-4-아민]	28 ± 19.3	–
COc1cccc(CCn2ncc3c(NCc4ccccc4)nc(SC)nc32)c1 [화합물 18h, 1-(3-메톡시펜에틸)-N-벤질-6-(메틸티오)-1H-피라졸로[3,4-d]피리미딘-4-아민]	56 ± 3.1	–
CSc1nc(NCc2ccccc2)c2c(-c3ccccc3)nn(-c3ccccc3)c2n1 [화합물 31a, 1-페닐-3-페닐-4-벤질아미노-6-(메틸티오)피라졸로[3,4-d]피리미딘]	68 ± 28	–
COc1nc(SC)nc2[nH]nc(I)c12 [11d, 3-아이오도-4-메톡시-6-(메틸티오)피라졸로[3,4-d]피리미딘]	–	activity at 30 µM (Mus musculus, BV-2, 24 h, 30 μM): 91 ± 3%
COc1ccc(CNc2nc(SC)nc3[nH]ncc23)cc1 [6x, N-(4-메톡시벤질)-6-(메틸티오)-1H-피라졸로[3,4-d]피리미딘-4-아민]	115 ± 3.2	–
CSc1nc(NCCO)c2cnn(C)c2n1 [12e, 1-메틸-4-(1-하이드록시에틸)아미노-6-(메틸티오)피라졸로[3,4-d]피리미딘]	91 ± 2	–
CSc1nc(Cl)c2cnn(Cc3ccccc3)c2n1 [5f, 1-벤질-4-클로로-6-(메틸티오)피라졸로[3,4-d]피리미딘]	69 ± 3	–
CSc1nc(NCCO)c2cn[nH]c2n1 [6f, 4-(1-하이드록시에틸)아미노-6-(메틸티오)피라졸로[3,4-d]피리미딘]	87 ± 6	–
CSc1nc(N[C@H](C)c2ccccc2)c2cn[nH]c2n1 [6k, (R)-4-(1-페닐에틸)아미노-6-(메틸티오)피라졸로[3,4-d]피리미딘]	16 ± 17	–
